According to a melting point compilation (Tetko et al.; mined from patent text by program, amines drawn as free bases though some values may be those of a salt):

| melting point [°C] | SMILES |
| --- | --- |
| 80 to 82 | OCc1ccc(Cn2nc(OCc3ccccc3)c3ccccc32)o1 |
| 100 to 101 | COc1ccc(C[C@H](NC(=O)[C@H](CC(C)C)NC(=O)OCc2ccccc2)C(=O)CSC)cc1 |
| 253 to 254 | O=C1Nc2cc(C(F)(F)F)ccc2S(=O)(=O)c2ccccc21 |
| 196 to 198 | Cc1cc(-c2ccc(Cl)cc2)n(-c2ccc(S(N)(=O)=O)cc2)c1 |
| 236 to 237 | O=C(c1ccccc1)c1ccc2nc3c(C(=O)O)cccc3nc2c1 |
| 177 to 180 | CCOC(=O)c1c(O)c2cnc(-c3ccccc3)nc2n(CC)c1=O |
| 82 to 84 | O=C(CCC#Cc1ccccn1)Nc1ccccc1F |
| 229 | Cc1cc(-c2ccc(C(F)(F)F)cc2)nc(-c2cccc(-c3cccc(S(N)(=O)=O)c3)n2)c1 |
| 106 to 107 | O=C(CCC(=O)Oc1ccc(C(=O)OCc2ccccc2)cc1)Oc1ccc(C(=O)OCc2ccccc2)cc1 |
| 152 to 156 | Cc1cc2cnnc(Cl)c2n1Cc1ccccc1 |
| 203 to 205 | O=C1CCC(N2Cc3c(OCc4ccc(OCCN5CCOCC5)cc4)cccc3C2=O)C(=O)N1 (centres undefined) |
| 166 | O=C(c1ccc(C#Cc2ccccc2)cc1)c1ccc(Oc2ccccc2)cc1 |

More lines, now with the values behind:

| SMILES | melting point [°C] |
| --- | --- |
| Cn1ncc(Cl)c(NCCCO)c1=O | 65 to 66 |
| COc1cc2c(cc1Br)Cc1cc(Br)ccc1-2 | 172 |
| CCOP(=S)(OCC)ON=C1C=CC(=C(C#N)c2ccccc2C)S1 | 86 to 87 |
| Cc1ccc(C)c(-c2cc(CO)ccc2CO)c1 | 145 to 148 |
| CC(=O)OC(C)c1cc2c(s1)C(=O)c1sccc1C2=O (centres undefined) | 165 to 166 |
| CCCNCC(=O)Nc1ccc2c(c1)C(=O)c1cc(NC(=O)CNCCC)ccc1C2=O | 143 |
| COc1cccc2[nH]cc(C3CN4CCC3CC4)c12 (centres undefined) | 193 to 195 |
| Cc1ccc(S(=O)(=O)ON=C2C3=C(C=C4OCCC42)CCCO3)cc1 (centres undefined) | 118 |
| CNC(=O)c1cc(Oc2ccc(N)c(F)c2)ccn1 | 140 to 141 |
| COc1ccc(N2CCN(c3c(C)c(C)c4c(c3C)C(C)(O)C(C)(C)O4)CC2)cc1 (centres undefined) | 139 to 141 |
| CC1Cc2cc3c(cc2C(c2ccc([N+](=O)[O-])cc2)=NN1c1nnn[nH]1)OCO3 (centres undefined) | 263 to 264 |
| Cc1ccc(S(=O)(=O)N2CCCC2c2ccccc2Cl)cc1 (racemic) | 149 |
| Cc1nc2cc(C#N)cc(C#N)c2[nH]1 | 290 to 292 |
| CN(Cc1sc2c(=O)c(C(=O)NCc3ccc(Cl)cc3)cn(C)c2c1COCC[Si](C)(C)C)CC(O)c1cnccn1 (centres undefined) | 155 to 156 |
| CCCN(C(C)C)[C@H]1COc2c(F)ccc(C(N)=O)c2C1 | 139 to 140 |
| CN1C(=O)C(C(=O)Nc2ccc(F)cc2)S(=O)(=O)c2cc(Cl)ccc21 (centres undefined) | 205 |
| O=[N+]([O-])c1nccn1CC(O)CN1CCCCC1 (centres undefined) | 108 to 109 |
| Cc1c(C(=O)Nc2ccc(N3CCC(NCCO)CC3)c(C#N)c2)cnn1-c1ccc(C(F)(F)F)cc1 | 202 |
| Nc1cc(-n2cc(C(=O)O)c(=O)c3cc(F)c(F)c(Cl)c32)c(Cl)cc1F | 237 to 242 |
| CCOCc1nc2c(N)nc3cc(OCCCCCCNS(C)(=O)=O)ccc3c2n1CC(C)(C)NS(C)(=O)=O | 176 to 180 |
| Cc1cc(Nc2cncc(-c3ccccc3)n2)n[nH]1 | 232 to 234 |
| CCN1CCN(Cc2nc3sc(Br)cc3c(=O)n2-c2ccccc2Cl)CC1 | 155 to 158 |
| NC(=S)c1c(F)cccc1Cl | 153 to 157 |
| CN(C(N)=O)C1Nc2ccc(Cl)cc2Oc2ccccc21 (centres undefined) | 146 to 149 |
| CCn1c(=O)c2c(ncn2CCCCC2CO2)n(CC)c1=O (centres undefined) | 58 to 59 |
| O=C1c2cccc3c(N4CCCC4)c([N+](=O)[O-])cc(c23)C(=O)N1O | 249 to 252 |
| CCNC(=O)NNC=NC(=O)c1nc(Cl)c(NC(C)C)nc1N | 148 to 150 |
